Results taken from the NIST ThermoML archive (doi:10.1021/je050416y).
± gives the expanded uncertainty stated by the source.

Assays:
[1] = 101 kPa, Liquid; for mass density: Vibrating tube method
[2] = xn = mol fraction of the nth substance listed; conditions: 101 kPa, Liquid, x2 = 0; for mass density: Vibrating tube method

CCC(C)CO (stereo not drawn) [2-methyl-1-butanol]
kinematic viscosity ([1]; 293.15 K): 6.11e-06 ± 2.5e-07 m2/s
mass density ([1]; 293.15 K): 817.6 ± 1 kg/m3
kinematic viscosity ([1]; 298.15 K): 5.34e-06 ± 2.3e-07 m2/s
mass density ([1]; 298.15 K): 814.1 ± 1 kg/m3
kinematic viscosity ([1]; 303.15 K): 4.69e-06 ± 2e-07 m2/s
mass density ([1]; 303.15 K): 810.5 ± 1 kg/m3
kinematic viscosity ([1]; 308.15 K): 4.08e-06 ± 1.8e-07 m2/s
mass density ([1]; 308.15 K): 807.1 ± 1 kg/m3
kinematic viscosity ([1]; 313.15 K): 3.54e-06 ± 1.6e-07 m2/s
mass density ([1]; 313.15 K): 803.6 ± 1 kg/m3
kinematic viscosity ([1]; 318.15 K): 3.09e-06 ± 1.4e-07 m2/s
mass density ([1]; 318.15 K): 800.1 ± 1 kg/m3
kinematic viscosity ([1]; 323.15 K): 2.72e-06 ± 1.2e-07 m2/s
mass density ([1]; 323.15 K): 796.6 ± 1 kg/m3

CCC(C)(C)O [2-methylbutan-2-ol]
kinematic viscosity ([1]; 293.15 K): 5.11e-06 ± 2.2e-07 m2/s
mass density ([1]; 293.15 K): 813.9 ± 1 kg/m3
kinematic viscosity ([1]; 298.15 K): 4.47e-06 ± 2e-07 m2/s
mass density ([1]; 298.15 K): 810.5 ± 1 kg/m3
kinematic viscosity ([1]; 303.15 K): 3.91e-06 ± 1.7e-07 m2/s
mass density ([1]; 303.15 K): 807 ± 1 kg/m3
kinematic viscosity ([1]; 308.15 K): 3.39e-06 ± 1.5e-07 m2/s
mass density ([1]; 308.15 K): 803.5 ± 1 kg/m3
kinematic viscosity ([1]; 313.15 K): 2.91e-06 ± 1.3e-07 m2/s
mass density ([1]; 313.15 K): 800 ± 1 kg/m3
kinematic viscosity ([1]; 318.15 K): 2.52e-06 ± 1.1e-07 m2/s
mass density ([1]; 318.15 K): 796.6 ± 1 kg/m3
kinematic viscosity ([1]; 323.15 K): 2.09e-06 ± 9.6e-08 m2/s
mass density ([1]; 323.15 K): 793.3 ± 1 kg/m3

CC(C)CCO [3-methylbutan-1-ol]
kinematic viscosity ([1]; 293.15 K): 5e-06 ± 2.2e-07 m2/s
mass density ([1]; 293.15 K): 808.3 ± 1 kg/m3
kinematic viscosity ([1]; 298.15 K): 4.35e-06 ± 1.9e-07 m2/s
mass density ([1]; 298.15 K): 804.6 ± 1 kg/m3
kinematic viscosity ([1]; 303.15 K): 3.81e-06 ± 1.7e-07 m2/s
mass density ([1]; 303.15 K): 800.8 ± 1 kg/m3
kinematic viscosity ([1]; 308.15 K): 3.33e-06 ± 1.5e-07 m2/s
mass density ([1]; 308.15 K): 797.1 ± 1 kg/m3
kinematic viscosity ([1]; 313.15 K): 2.94e-06 ± 1.3e-07 m2/s
mass density ([1]; 313.15 K): 793.2 ± 1 kg/m3
kinematic viscosity ([1]; 318.15 K): 2.59e-06 ± 1.2e-07 m2/s
mass density ([1]; 318.15 K): 789.5 ± 1 kg/m3
kinematic viscosity ([1]; 323.15 K): 2.29e-06 ± 1e-07 m2/s
mass density ([1]; 323.15 K): 785.7 ± 1 kg/m3

CCO [ethanol]
kinematic viscosity ([1]; 293.15 K): 1.52e-06 ± 7.2e-08 m2/s
mass density ([1]; 293.15 K): 789.7 ± 1 kg/m3
kinematic viscosity ([1]; 298.15 K): 1.39e-06 ± 6.6e-08 m2/s
mass density ([1]; 298.15 K): 785.3 ± 1 kg/m3
kinematic viscosity ([1]; 303.15 K): 1.23e-06 ± 5.9e-08 m2/s
mass density ([1]; 303.15 K): 780.9 ± 1 kg/m3
kinematic viscosity ([1]; 308.15 K): 1.13e-06 ± 5.5e-08 m2/s
mass density ([1]; 308.15 K): 776.5 ± 1 kg/m3
kinematic viscosity ([1]; 313.15 K): 1.02e-06 ± 5.1e-08 m2/s
mass density ([1]; 313.15 K): 772.2 ± 1 kg/m3
kinematic viscosity ([1]; 318.15 K): 9.4e-07 ± 4.7e-08 m2/s
mass density ([1]; 318.15 K): 767.9 ± 1 kg/m3
kinematic viscosity ([1]; 323.15 K): 8.28e-07 ± 4.2e-08 m2/s
mass density ([1]; 323.15 K): 763.5 ± 1 kg/m3

CCO [ethanol] + CC(C)CCO
mass density ([2]; 293.15 K): 789.7 ± 1 kg/m3
kinematic viscosity ([2]; 293.15 K): 1.52e-06 ± 7.2e-08 m2/s
mass density ([2]; 298.15 K): 785.3 ± 1 kg/m3
kinematic viscosity ([2]; 298.15 K): 1.39e-06 ± 6.6e-08 m2/s
mass density ([2]; 303.15 K): 780.9 ± 1 kg/m3
kinematic viscosity ([2]; 303.15 K): 1.23e-06 ± 5.9e-08 m2/s
mass density ([2]; 308.15 K): 776.5 ± 1 kg/m3
kinematic viscosity ([2]; 308.15 K): 1.13e-06 ± 5.5e-08 m2/s
mass density ([2]; 313.15 K): 772.2 ± 1 kg/m3
kinematic viscosity ([2]; 313.15 K): 1.02e-06 ± 5.1e-08 m2/s
mass density ([2]; 318.15 K): 767.9 ± 1 kg/m3
kinematic viscosity ([2]; 318.15 K): 9.4e-07 ± 4.7e-08 m2/s
mass density ([2]; 323.15 K): 763.5 ± 1 kg/m3
kinematic viscosity ([2]; 323.15 K): 8.28e-07 ± 4.2e-08 m2/s

CCO [ethanol] + CCC(C)(C)O
mass density ([2]; 293.15 K): 789.7 ± 1 kg/m3
kinematic viscosity ([2]; 293.15 K): 1.52e-06 ± 7.2e-08 m2/s
mass density ([2]; 298.15 K): 785.3 ± 1 kg/m3
kinematic viscosity ([2]; 298.15 K): 1.39e-06 ± 6.6e-08 m2/s
mass density ([2]; 303.15 K): 780.9 ± 1 kg/m3
kinematic viscosity ([2]; 303.15 K): 1.23e-06 ± 5.9e-08 m2/s
mass density ([2]; 308.15 K): 776.5 ± 1 kg/m3
kinematic viscosity ([2]; 308.15 K): 1.13e-06 ± 5.5e-08 m2/s
mass density ([2]; 313.15 K): 772.2 ± 1 kg/m3
kinematic viscosity ([2]; 313.15 K): 1.02e-06 ± 5.1e-08 m2/s
mass density ([2]; 318.15 K): 767.9 ± 1 kg/m3
kinematic viscosity ([2]; 318.15 K): 9.4e-07 ± 4.7e-08 m2/s
mass density ([2]; 323.15 K): 763.5 ± 1 kg/m3
kinematic viscosity ([2]; 323.15 K): 8.28e-07 ± 4.2e-08 m2/s

CCO [ethanol] + CCC(C)CO
mass density ([2]; 293.15 K): 789.7 ± 1 kg/m3
kinematic viscosity ([2]; 293.15 K): 1.52e-06 ± 7.2e-08 m2/s
mass density ([2]; 298.15 K): 785.3 ± 1 kg/m3
kinematic viscosity ([2]; 298.15 K): 1.39e-06 ± 6.6e-08 m2/s
mass density ([2]; 303.15 K): 780.9 ± 1 kg/m3
kinematic viscosity ([2]; 303.15 K): 1.23e-06 ± 5.9e-08 m2/s
mass density ([2]; 308.15 K): 776.5 ± 1 kg/m3
kinematic viscosity ([2]; 308.15 K): 1.13e-06 ± 5.5e-08 m2/s
mass density ([2]; 313.15 K): 772.2 ± 1 kg/m3
kinematic viscosity ([2]; 313.15 K): 1.02e-06 ± 5.1e-08 m2/s
mass density ([2]; 318.15 K): 767.9 ± 1 kg/m3
kinematic viscosity ([2]; 318.15 K): 9.4e-07 ± 4.7e-08 m2/s
mass density ([2]; 323.15 K): 763.5 ± 1 kg/m3
kinematic viscosity ([2]; 323.15 K): 8.28e-07 ± 4.2e-08 m2/s
